Measurements published in patent US8993721B2, “Peptides for targeting apoptotic cells and uses thereof” (Kyungpook National University Industry-Academic Cooperation …, priority 2008, dated 2015).
Entries after “also recorded” stand apart in the source; their conditions may differ. Where no end group is shown, it is not given here.

Legend:
[1] = tested on: apoptotic cells in A549 tumor tissue xenotransplanted in nude mouse; assay: Histological analysis of tumor targeting (Example 8); format: in vivo; settings: fluorescein-labeled peptide, tail vein, 50 μM
Experimental: All animal experiments were performed in accordance with the guideline of the Institutional Animal Care and Use Committee. For tumor xenotransplantation, human lung cancer cells (A549, 1×10^6 cells) suspended in RMPI-1640 medium was subcutaneously injected at the right upper or lower limb of a 6-week-old male BALB/c nude mouse (Hyochang Science). Then, 3 to 4 weeks were given for the tumor to grow to a size of 0.5 to 1 cm. The A549 cell line used in the experiment was cultured in RMPI-1640 medium containing 10% fetal bovine serum (FBS) in which antibiotics (penicillin and streptomycin) were included. Subculturing was performed every 3 or 4 days.
The peptides used in the present invention were fluorescein-attached form at the N-terminal. They were synthesized according to the standard Fmoc technique and then isolated through HPLC. The peptide synthesis was performed by an expertise company (Peptron). […]
For histological analysis, the mouse was anesthetized and the abdomen was cut open. […] After treatment with a mounting solution containing the nuclear stain 4′,6-diamidino-2-phenylindole (DAPI) (Invitrogen), images of the cells were obtained under a fluorescence microscope (Zeiss).

[2] = tested on: etoposide-treated apoptotic A549 cells; assay: FACS analysis of binding to apoptotic cells (Example 9-3); format: cell-based, human
Experimental: As another way of confirming the binding of the polypeptide of the present invention (ApoPep-2) to apoptotic cells, apoptotic cells were treated with the peptide, labeled with fluorescein, and the binding was confirmed through FACS analysis. First, apoptosis was induced by treating A549 cells with 50 μM etoposide for 20 hours. The apoptotic cells or normal cells were reacted with ApoPep-2 (10 μM) or a control peptide at the same concentration, labeled with fluorescein, at 4° C. or 37° C. for 1 hour. Further, the cells were reacted with fluorescein-labeled annexin V at room temperature for 15 minutes. After washing cells with PBS, FACS analysis was performed using a FACS instrument (Becton Dickinson).

## CSVAPR (also: fluorescein or Cy7.5 label) [ApoPep-2, peptide CSVAPR screened for endothelial cells; used fluorescein- or Cy7.5-labeled]
[1]; 2 hours
  binding to cells stained by TUNEL (apoptotic cells) in the tumor tissue: target the tumor tissue and mainly bind to the tumor cells undergoing apoptosis; also recorded: binds to the cells stained by TUNEL
[1]; 2 hours circulation
  peptide fluorescence observed in the tumor tissue: observed in the tumor tissue
[2]; A549 without etoposide, 10 μM, 4° C. or 37° C.
  binding to normal cells (FACS): almost nonexistent or minimal
[2]; etoposide 20 hours, peptide 10 μM, 4° C. 1 hour
  cells bound to the peptide at 4° C.: 28%
[2]; etoposide 20 hours, peptide 10 μM, 37° C. 1 hour
  cells bound to the peptide at 37° C.: 48%
